For experiment [1], the target named is T1, human CRF2a receptor (Homo sapiens, UniProt Q13324).
T1 construct: expressed in transfected cells; host or cells: TeloHEAC cells
T1 sequence (Q13324 1-411): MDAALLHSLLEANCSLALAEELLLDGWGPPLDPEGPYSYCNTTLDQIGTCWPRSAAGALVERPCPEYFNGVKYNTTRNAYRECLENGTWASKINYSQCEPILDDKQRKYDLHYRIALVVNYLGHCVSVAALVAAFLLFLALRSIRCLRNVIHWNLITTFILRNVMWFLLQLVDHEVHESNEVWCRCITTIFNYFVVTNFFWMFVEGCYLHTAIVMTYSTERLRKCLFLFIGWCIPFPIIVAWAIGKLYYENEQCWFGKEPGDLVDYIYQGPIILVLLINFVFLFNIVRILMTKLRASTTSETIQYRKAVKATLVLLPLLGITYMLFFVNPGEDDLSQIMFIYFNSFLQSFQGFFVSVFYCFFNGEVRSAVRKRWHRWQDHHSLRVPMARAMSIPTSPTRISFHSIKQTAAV
Put plainly: Activity at human CRF2a receptor, cAMP functional assay in TeloHEAC cells. The format is cell-based. To be noted: TeloHEAC cells stably expressing human CRF2a receptor, relative to urocortin 2 (100 nM = 100%). Summed up: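 TeloHEAC cells stably expressing human CRF2a (10000 cells/well) were treated with 16-point 1:2 compound dilutions in HBSS/20 mM HEPES with IBMX for 30 min at 37° C. cAMP was read by HTRF (665/620 nm ratio). EC50 was the concentration giving 50% activation, with 100 nM urocortin 2 set as 100%.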

In experiment [2] the target is T2, CFR1R receptor (Homo sapiens, UniProt P34998).
T2 construct: host or cells: CHO-K1 (clone 2)
T2 sequence (P34998 24-415): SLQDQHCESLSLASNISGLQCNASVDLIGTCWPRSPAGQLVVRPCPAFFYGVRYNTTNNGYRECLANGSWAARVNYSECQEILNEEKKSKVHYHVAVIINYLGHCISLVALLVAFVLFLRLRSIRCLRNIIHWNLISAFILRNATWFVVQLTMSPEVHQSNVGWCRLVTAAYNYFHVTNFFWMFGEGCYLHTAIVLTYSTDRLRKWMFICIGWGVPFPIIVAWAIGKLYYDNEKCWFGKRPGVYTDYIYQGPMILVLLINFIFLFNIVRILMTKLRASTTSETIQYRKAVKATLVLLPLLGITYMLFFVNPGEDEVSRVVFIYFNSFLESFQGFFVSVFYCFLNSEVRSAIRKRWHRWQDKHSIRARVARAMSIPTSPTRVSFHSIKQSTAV
The experiment in a line: Activity at anti-target CFR1R receptor, cAMP assay in CRF1R-overexpression CHO-K1 cells. Type of experiment: cell-based. To be noted: 100% = Sauvagine at 100 nM; for EC50: cAMP. In short, it runs like this:
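Uses frozen stocks of CHO-K1 clone 2 cells overexpressing human CRF1R, plated at 4000 cells/well final, with cAMP measured by the same protocol as the TeloHAEC line. Full-activation control: 100 nM Sauvagine.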
(In general: Changes in cAMP serve as a functional read-out for many G protein-coupled receptors.)

The source of these data is patent publication US20260001928A1 (CORTERIA PHARMACEUTICALS, priority 2022, published 2026).

*1 amine or outer side, *2 acyl side, *3 side chain or, on linkers, in order; H or OH if unused. Where a SMILES comes first, the peptide text is derived from it. Side-chain parts run from the residue outwards. [ ]: non-standard residue; d: D form. The star is where a group is joined. C20 diacid = O=C(O)CCCCCCCCCCCCCCCCCCC(=O)*; γGlu = O=C(O)[C@H](CCC(=O)[*:2])N[*:1]; Api = NC1(C(=O)O)CCNCC1; Pentanoyl = CCCCC(=O)*; AEEA = NCCOCCOCC(=O)O; Aib = CC(C)(N)C(=O)O

In the case of `CC[C@H](C)[C@H](NC(C)=O)C(=O)N[C@H](C(=O)N[C@@H](CC(C)C)C(=O)N[C@@H](CO)C(=O)N[C@@H](CC(C)C)C(=O)N[C@@H](CC(=O)O)C(=O)N[C@@H](C(=O)N1CCC[C@H]1C(=O)N[C@H](C(=O)NCC(=O)N[C@@H](CC(C)C)C(=O)N[C@@H](CCCCNC(=O)CC[C@H](NC(=O)CCCCCCCCCCCCCCCCCCC(=O)O)C(=O)O)C(=O)N[C@@H](CCCCN)C(=O)N[C@H](C(=O)N[C@@H](CC(C)C)C(=O)N[C@@H](CC(C)C)C(=O)N[C@@H](CCC(=O)O)C(=O)N[C@@H](CCC(N)=O)C(=O)N[C@@H](CCC(=O)O)C(=O)N[C@@H](CCCCN)C(=O)N[C@@H](CCC(N)=O)C(=O)N[C@@H](CCCCN)C(=O)N[C@@H](CCCCN)C(=O)N[C@@H](CCC(N)=O)C(=O)N[C@@H](CCCNC(=N)N)C(=O)N[C@@H](CCC(=O)O)C(=O)N[C@@H](CCC(N)=O)C(=O)N[C@@H](C)C(=O)N[C@@H](CCC(=O)O)C(=O)N[C@H](C(=O)N[C@@H](CC(N)=O)C(=O)NC1(C(=O)N[C@@H](CCC(N)=O)C(=O)N[C@H](C(=O)N[C@@H](CC(C)C)C(=O)N[C@@H](C)C(=O)N[C@@H](CCC(N)=O)C(=O)N[C@H](C(N)=O)C(C)C)[C@@H](C)CC)CCNCC1)[C@@H](C)O)[C@@H](C)CC)[C@@H](C)CC)C(C)C)C(C)C` [compound 227] (Ac-IVLSLD[dV]PIGLK([γGlu-C20 diacid])KILLEQEKQKKQREQAETN[Api]QILAQV-NH2), in experiment [1], the EC50 – broadly, the concentration giving half of the maximal effect – was 0.2 nM. Further, in experiment [2], the “Emax (% I)” value was 97 % I.
In experiment [1], `CCCCC(=O)N[C@H](C(=O)N[C@@H](CC(C)C)C(=O)N[C@@H](CO)C(=O)N[C@@H](CC(C)C)C(=O)N[C@@H](CC(=O)O)C(=O)N[C@@H](C(=O)N1CCC[C@H]1C(=O)N[C@H](C(=O)NCC(=O)N[C@@H](CC(C)C)C(=O)N[C@@H](CCCCNC(=O)CC[C@H](NC(=O)CCCCCCCCCCCCCCCCCCC(=O)O)C(=O)O)C(=O)N[C@@H](CCCCN)C(=O)N[C@H](C(=O)N[C@@H](CC(C)C)C(=O)N[C@@H](CC(C)C)C(=O)N[C@@H](CCC(=O)O)C(=O)N[C@@H](CCC(N)=O)C(=O)N[C@@H](CCC(=O)O)C(=O)N[C@@H](CCCCN)C(=O)N[C@@H](CCC(N)=O)C(=O)N[C@@H](CCCCN)C(=O)N[C@@H](CCCCN)C(=O)N[C@@H](CCC(N)=O)C(=O)N[C@@H](CCCNC(=N)N)C(=O)N[C@@H](CCC(=O)O)C(=O)N[C@@H](CCC(N)=O)C(=O)N[C@@H](C)C(=O)N[C@@H](CCC(=O)O)C(=O)N[C@H](C(=O)N[C@@H](CC(N)=O)C(=O)NC(C)(C)C(=O)N[C@@H](CCC(N)=O)C(=O)N[C@H](C(=O)N[C@@H](CC(C)C)C(=O)N[C@@H](C)C(=O)N[C@@H](CCC(N)=O)C(=O)N[C@H](C(N)=O)C(C)C)[C@@H](C)CC)[C@@H](C)O)[C@@H](C)CC)[C@@H](C)CC)C(C)C)C(C)C` [compound 228] (Pentanoyl-VLSLD[dV]PIGLK([γGlu-C20 diacid])KILLEQEKQKKQREQAETN[Aib]QILAQV-NH2) came in with an EC50 of 0.19 nM. Also, in experiment [2], the “Emax (% I)” value is on record as 62 % I.
Regarding `CC[C@H](C)[C@H](NC(C)=O)C(=O)N[C@H](C(=O)N[C@@H](CC(C)C)C(=O)N[C@@H](CO)C(=O)N[C@@H](CC(C)C)C(=O)N[C@@H](CC(=O)O)C(=O)N[C@@H](C(=O)N1CCC[C@H]1C(=O)N[C@H](C(=O)N[C@@H](CCCCN)C(=O)N[C@@H](CC(C)C)C(=O)N[C@@H](CCCCNC(=O)COCCOCCNC(=O)COCCOCCNC(=O)CC[C@H](NC(=O)CCCCCCCCCCCCCCCCCCC(=O)O)C(=O)O)C(=O)N[C@@H](CCCCN)C(=O)N[C@H](C(=O)N[C@@H](CC(C)C)C(=O)N[C@@H](CC(C)C)C(=O)N[C@@H](CCC(=O)O)C(=O)N[C@@H](CCC(N)=O)C(=O)N[C@@H](CCC(=O)O)C(=O)N[C@@H](CCCCN)C(=O)N[C@@H](CCC(N)=O)C(=O)N[C@@H](CCCCN)C(=O)N[C@@H](C)C(=O)N[C@@H](CCC(N)=O)C(=O)N[C@@H](CCCNC(=N)N)C(=O)N[C@@H](CCC(=O)O)C(=O)N[C@@H](CCC(N)=O)C(=O)N[C@@H](C)C(=O)N[C@@H](CCC(=O)O)C(=O)N[C@H](C(=O)N[C@@H](CC(N)=O)C(=O)NC(C)(C)C(=O)N[C@@H](CCC(N)=O)C(=O)N[C@H](C(=O)N[C@@H](CC(C)C)C(=O)N[C@@H](C)C(=O)N[C@@H](CCC(N)=O)C(=O)N[C@H](C(N)=O)C(C)C)[C@@H](C)CC)[C@@H](C)O)[C@@H](C)CC)[C@@H](C)CC)C(C)C)C(C)C` [compound 240] (Ac-IVLSLD[dV]PIKLK([AEEA-AEEA-γGlu-C20 diacid])KILLEQEKQKAQREQAETN[Aib]QILAQV-NH2), in experiment [1], it took 0.22 nM to reach a half-maximal effect (EC50). Moreover, in experiment [2], the “Emax (% I)” value is listed as 4 % I and the EC50 was over 250 nM.
As to `CC[C@H](C)[C@H](NC(C)=O)C(=O)N[C@H](C(=O)N[C@@H](CC(C)C)C(=O)N[C@@H](CO)C(=O)N[C@@H](CC(C)C)C(=O)N[C@@H](CC(=O)O)C(=O)N[C@@H](C(=O)N1CCC[C@H]1C(=O)N[C@H](C(=O)N[C@@H](CCCCN)C(=O)N[C@@H](CC(C)C)C(=O)N[C@@H](CCCCNC(=O)CC[C@H](NC(=O)CC[C@H](NC(=O)CCCCCCCCCCCCCCCCCCC(=O)O)C(=O)O)C(=O)O)C(=O)N[C@@H](CCCCN)C(=O)N[C@H](C(=O)N[C@@H](CC(C)C)C(=O)N[C@@H](CC(C)C)C(=O)N[C@@H](CCC(=O)O)C(=O)N[C@@H](CCC(N)=O)C(=O)N[C@@H](CCC(=O)O)C(=O)N[C@@H](CCCCN)C(=O)N[C@@H](CCC(N)=O)C(=O)N[C@@H](CCCCN)C(=O)N[C@@H](C)C(=O)N[C@@H](CCC(N)=O)C(=O)N[C@@H](CCCNC(=N)N)C(=O)N[C@@H](CCC(=O)O)C(=O)N[C@@H](CCC(N)=O)C(=O)N[C@@H](C)C(=O)N[C@@H](CCC(=O)O)C(=O)N[C@H](C(=O)N[C@@H](CC(N)=O)C(=O)NC(C)(C)C(=O)N[C@@H](CCC(N)=O)C(=O)N[C@H](C(=O)N[C@@H](CC(C)C)C(=O)N[C@@H](C)C(=O)N[C@@H](CCC(N)=O)C(=O)N[C@H](C(N)=O)C(C)C)[C@@H](C)CC)[C@@H](C)O)[C@@H](C)CC)[C@@H](C)CC)C(C)C)C(C)C` [compound 244] (Ac-IVLSLD[dV]PIKLK([γGlu-γGlu-C20 diacid])KILLEQEKQKAQREQAETN[Aib]QILAQV-NH2), the EC50 in experiment [1] is 0.28 nM; in experiment [2] it was over 250 nM. Further, the “Emax (% I)” value in experiment [2] was 8 % I.
